Experiments:
Assay in all cases: normalised response (% of control), CellTiter-Glo; higher = more viable cells (100 = DMSO, 0 = benzethonium chloride kill control)
Settings in all cases: incubation time: 72 h
BT-474 = tested on: BT-474
Summary of the method: (§1)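 Plates were normalised with 0.1 % DMSO as 100 and a positive kill control as 0. Breast cancer cell lines in 20 µl suspension had been seeded into 384-well plates with compound at 5 concentrations in 10-fold steps over a compound-specific 10,000-fold range, incubated 72 h, and read for CellTox Green fluorescence (485/520 nm) followed by CellTiter-Glo luminescence. Each value is the normalised signal at a single concentration.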

BT-549 = tested on: BT-549
Summary of the method: as §1

CAL-120 = tested on: CAL-120
Summary of the method: as §1

CAL-148 = tested on: CAL-148
Summary of the method: as §1

CAL-51 = tested on: CAL-51
Summary of the method: as §1

CAL-85-1 = tested on: CAL-85-1
Summary of the method: as §1

DU-4475 = tested on: DU-4475
Summary of the method: as §1

HCC1143 = tested on: HCC1143
Summary of the method: as §1

HCC1599 = tested on: HCC1599
Summary of the method: as §1

HCC1937 = tested on: HCC1937
Summary of the method: as §1

HDQ-P1 = tested on: HDQ-P1
Summary of the method: as §1

Hs578T = tested on: Hs578T
Summary of the method: as §1

MCF-10A = tested on: MCF-10A
Summary of the method: as §1

MDA-MB-231 = tested on: MDA-MB-231
Summary of the method: as §1

MDA-MB-436 = tested on: MDA-MB-436
Summary of the method: as §1

MDA-MB-453 = tested on: MDA-MB-453
Summary of the method: as §1

MDA-MB-468 = tested on: MDA-MB-468
Summary of the method: as §1

MFM-223 = tested on: MFM-223
Summary of the method: as §1

SK-BR-3 = tested on: SK-BR-3
Summary of the method: as §1

Row | Compound | normalised response (BT-474) | normalised response (BT-549) | normalised response (CAL-120) | normalised response (CAL-148) | normalised response (CAL-51) | normalised response (CAL-85-1) | normalised response (DU-4475) | normalised response (HCC1143) | normalised response (HCC1599) | normalised response (HCC1937) | normalised response (HDQ-P1) | normalised response (Hs578T) | normalised response (MCF-10A) | normalised response (MDA-MB-231) | normalised response (MDA-MB-436) | normalised response (MDA-MB-453) | normalised response (MDA-MB-468) | normalised response (MFM-223) | normalised response (SK-BR-3)
1 | Cn1cc(CNCC2CCN(c3ncc(C(=O)NO)cn3)CC2)c2ccccc21 [Quisinostat] (1 nM) | 107% | 97.8% | 96.8% | 110% | 121% | 97.7% | 102% | 103% | 110% | 97.1% | 94.3% | 96.8% | 107% | 101% | 104% | 105% | 97% | 104% | 102%
2 | O=S(=O)(c1cccc2cnccc12)N1CCCNCC1 [Fasudil] (5 nM) | 97.4% | 99.6% | 95.5% | 105% | 81.8% | 102% | 101% | 96.1% | 109% | 94.8% | 103% | 97.3% | 97.9% | 101% | 98% | 107% | 103% | 99.3% | 101%
3 | CO[C@@H](C(=O)N1Cc2[nH]nc(NC(=O)c3ccc(N4CCN(C)CC4)cc3)c2C1)c1ccccc1 [Danusertib] (1 nM) | 101% | 102% | 99.1% | 98.2% | 101% | 96.3% | 99% | 91.5% | 121% | 95.5% | 93.9% | 98% | 94.2% | 104% | 103% | 110% | 101% | 94.8% | 90.8%
4 | CCCCC/C=C/C=C1/C(=O)C=C[C@@H]1C/C=C\CCCC(=O)O [15D-PGJ2] (0.8 nM) | 103% | 97.8% | 100% | 107% | 81.2% | 94.7% | 102% | 108% | 93.8% | 108% | 98.9% | 101% | 104% | 102% | 98.2% | 97% | 92.8% | 102% | 101%
5 | COc1nc(N)nc2c1ncn2[C@@H]1O[C@H](CO)[C@@H](O)[C@@H]1O [Nelarabine] (1 nM) | 87.9% | 102% | 94.5% | 84.1% | 117% | 94.9% | 89.5% | 92.3% | 105% | 88.8% | 90.5% | 94.8% | 79.1% | 98.1% | 86% | 90.4% | 84% | 88.2% | 86.1%
6 | Nc1cccc2c1CN(C1CCC(=O)NC1=O)C2=O (stereo not given) [Lenalidomide] (10 nM) | 97.8% | 101% | 92.6% | 99.7% | 73.6% | 106% | 102% | 105% | 111% | 91.2% | 99.9% | 97.1% | 104% | 97.8% | 91.9% | 104% | 105% | 95.8% | 107%
7 | CCC/C=C/C=C/C(=O)O[C@H]1/C(=C/C(=O)OC)C[C@H]2C[C@H]([C@@H](C)O)OC(=O)C[C@H](O)C[C@@H]3C[C@H](OC(C)=O)C(C)(C)[C@](O)(C[C@@H]4C/C(=C/C(=O)OC)C[C@H](/C=C/C(C)(C)[C@]1(O)O2)O4)O3 [Bryostatin 1] (0.01 nM) | 106% | 99.1% | 96.1% | 101% | 92.1% | 101% | 107% | 97.7% | 118% | 98.6% | 97.8% | 100% | 108% | 105% | 101% | 109% | 104% | 105% | 103%
8 | COc1ccc(-c2cc3c(C)nc(N)nc3n([C@H]3CC[C@H](OCCO)CC3)c2=O)cn1 (1 nM) | 93.4% | 101% | 91.1% | 82.3% | 112% | 93.8% | 90.7% | 88.6% | 104% | 96.2% | 89.5% | 96.8% | 84.8% | 96.5% | 83.5% | 97.4% | 97% | 85.4% | 80.9%
9 | CC[C@@]1(O)C(=O)OCc2c1cc1n(c2=O)Cc2cc3c(CN(C)C)c(O)ccc3nc2-1 [Topotecan] (1 nM) | 93.2% | 97.3% | 92.5% | 97.6% | 68.1% | 95.6% | 95.3% | 92.8% | 95% | 97% | 99.7% | 105% | 97.3% | 97.9% | 99.3% | 103% | 94.7% | 93.7% | 99.2%
10 | COc1cc(CCc2cc(NC(=O)c3ccc(N4CC(C)NC(C)C4)cc3)n[nH]2)cc(OC)c1 (stereo not given) [AZD4547] (0.1 nM) | 97.5% | 105% | 104% | 82.8% | 135% | 97.9% | 97.9% | 101% | 115% | 94.2% | 99.9% | 95.3% | 92.3% | 101% | 102% | 97.5% | 103% | 93.2% | 91.5%
11 | C[C@]12O[C@H](C[C@]1(O)CO)n1c3ccccc3c3c4c(c5c6ccccc6n2c5c31)CNC4=O [Lestaurtinib] (0.1 nM) | 96.7% | 98.4% | 103% | 90.7% | 91.1% | 103% | 94.8% | 99.6% | 92.7% | 95% | 100% | 97.8% | 92.9% | 102% | 94% | 100% | 95.8% | 96.7% | 89.2%
12 | CCN(CC)CCNC(=O)c1c(C)[nH]c(/C=C2\C(=O)Nc3ccc(F)cc32)c1C [Sunitinib] (1 nM) | 109% | 95.5% | 107% | 103% | 141% | 99.9% | 99.4% | 103% | 119% | 107% | 97.1% | 97.7% | 107% | 101% | 104% | 105% | 106% | 105% | 111%
13 | COc1cc(CCc2cc(NC(=O)c3ccc(N4CC(C)NC(C)C4)cc3)n[nH]2)cc(OC)c1 (stereo not given) [AZD4547] (1 nM) | 103% | 94.8% | 101% | 85% | 102% | 96.9% | 94.6% | 97% | 104% | 98.4% | 98.3% | 98.6% | 96.7% | 96% | 97.2% | 91.9% | 97.8% | 91.9% | 106%
14 | CC/C(=C(\c1ccc(O)cc1)c1ccc(OCCN(C)C)cc1)c1ccccc1 [4-hydroxytamoxifen] (10 nM) | 96.7% | 97.1% | 98.3% | 110% | 88.4% | 97% | 103% | 101% | 93.5% | 97% | 95.7% | 102% | 109% | 96.8% | 90% | 112% | 108% | 104% | 98.3%
15 | Cc1c(Cn2c(C)nc3c(C(=O)O)cc(N4CCOCC4)cc32)cccc1C(F)(F)F (10 nM) | 101% | 94.8% | 99.5% | 112% | 79.4% | 99.5% | 102% | 104% | 118% | 98.8% | 101% | 105% | 118% | 107% | 98.9% | 100% | 105% | 104% | 100%
16 | O=C1c2c(O)ccc(O)c2C(=O)c2c(NCCNCCO)ccc(NCCNCCO)c21 [Mitoxantrone] (0.1 nM) | 91.8% | 99.3% | 103% | 94.2% | 101% | 101% | 94.2% | 104% | 95.3% | 98.1% | 102% | 96.9% | 103% | 98.9% | 84.4% | 99.3% | 97.8% | 97.3% | 98%
17 | CCN(CC)CCNC(=O)c1c(C)[nH]c(/C=C2\C(=O)Nc3ccc(F)cc32)c1C [Sunitinib] (0.1 nM) | 104% | 100% | 105% | 108% | 81.7% | 99.9% | 96.1% | 103% | 94.7% | 95.8% | 98.5% | 93.5% | 99.3% | 106% | 94.9% | 106% | 103% | 103% | 114%
18 | Cc1cccc(-c2nn3c(c2-c2ccnc4ccc(C(N)=O)cc24)CCC3)n1 [Galunisertib] (0.1 nM) | 108% | 95.7% | 104% | 112% | 76.9% | 98.1% | 105% | 110% | 107% | 104% | 104% | 110% | 109% | 100% | 104% | 107% | 116% | 108% | 109%
19 | Cn1cc(CNCC2CCN(c3ncc(C(=O)NO)cn3)CC2)c2ccccc21 [Quisinostat] (0.1 nM) | 104% | 99.8% | 103% | 109% | 84.2% | 107% | 103% | 105% | 92.9% | 99.6% | 100% | 96.5% | 109% | 106% | 101% | 109% | 109% | 104% | 108%
20 | CC(C)N(CCCNC(=O)Nc1ccc(C(C)(C)C)cc1)C[C@H]1O[C@@H](n2cc(Br)c3c(N)ncnc32)[C@H](O)[C@@H]1O [SGC0946] (1 nM) | 93.8% | 99.2% | 94.9% | 99.5% | 104% | 98.4% | 98.5% | 89.9% | 93.8% | 92.7% | 94.5% | 96% | 101% | 93.2% | 102% | 95.3% | 97.7% | 91.3% | 97.5%

Reference: the supplement of paper PMC4862054
